According to patent US20180344696A1, “SYNERGISTIC COMBINATION OF PYRROLIDONE CARBOXYLIC ACID AND/OR SALTS THEREOF AND HYALURONIC ACID AND/OR SALTS THEREOF, FOR USE IN THE TREATMENT AND/OR PREVENTION OF DRYNESS AND IRRITATION OF THE MUCOSAE, AND RELATED PHARMACEUTICAL FORMULATIONS” (LABORATORI BALDACCI S.P.A., priority 2015, published 2018):

Experiments:
[1] = Determination of PCA permanence on the nasal mucosa (HPLC recovery after applying gel); assay type: in vivo, human
Protocol: The samples were taken at various time points after administration, in order to accurately collect all the material present on the mucosa. After restoring to a certain volume of water (20 ml), the suspension obtained was filtered, and then 20 μl were injected into a chromatograph for quantitative analysis. A Waters liquid chromatograph with the following parameters was used: • Column: μBondapack C18 • Mobile phase: 0.1 M phosphoric acid at pH 3 with sodium hydroxide. • Flow: 1.5 ml/min • Detector: Spectrophotometer at 210 nm

[2] = Permanence of PCA in mucosal tissue after topical application (general statements); assay type: in vivo
[3] = Hygroscopic test according to Farmacopea Ufficiale Italiana (FUI) XII; assay type: physicochemical; details: 5.00 g dried sample, 25° C., 24 hours
Protocol: The determination of hygroscopicity of the combination of PCA and hyaluronic acid was performed, a test related to the hydration capability of a compound or mixture of compounds, to evaluate the synergism of the combination of PCA and hyaluronic acid for use in the treatment and/or prevention of dryness and irritation of the mucosae. […] At the end of the procedure, the contained was closed with its lid and weighed again (m3).

Row | PCA percentage present in the nasal mucosa, % of recovery based on the standard ([1]; T = 0 after administration, 100 mg gel of Example 2 (1% PCA, 0.05% hyaluronic acid) on nasal mucosa) [% n = 1] | PCA percentage present in the nasal mucosa, % of recovery based on the standard ([1]; T = 60 after administration, 100 mg gel of Example 2 on nasal mucosa) [% n = 2] | PCA percentage present in the nasal mucosa, % of recovery based on the standard ([1]; T = 120 after administration, 100 mg gel of Example 2 on nasal mucosa) [% n = 2] | PCA percentage present in the nasal mucosa, % of recovery based on the standard ([1]; T = 180 after administration, 100 mg gel of Example 2 on nasal mucosa) [% n = 3] | Time PCA is present on the nasal mucosa after application ([1]; gel formulation from Example 2 on the nasal mucosa) [h] | Administered amount of PCA identified in mucosal tissues ([2]; 4 hours after a topical application of the formulations of the invention) | Time PCA remains in the mucosae ([2]; after topical application) [h] | Result (hygroscopicity class) [3] | Water adsorption (%) (average of the triplicate) [3] | Water adsorption (g) (average of the triplicate) [3] | Final Weight ([3]; desiccator with saturated ammonium chloride or ammonium sulfate solution) [g] | Compound
1 | 95 | 80 | 78 | 70 | ≥ 4 | approximately 80% | > 4 | – | – | – | – | O=C1CCC(C(=O)O)N1 (centres unmarked) [PCA, Pyrrolidone carboxylic acid]
2 | – | – | – | – | – | – | – | hygroscopic | 6.00 | 0.30 | 5.30 ± 0.05 | Hyaluronic acid [100% HA]
